{"source": "patent US7964631B2", "about": "“Fused tricyclic compounds as inhibitors of tumor necrosis factor-α” (Piramal Life Sciences Limited, priority 2004, dated 2011)", "key": {"[1]": {"system": "TNF-α", "assay": "LPS-induced TNF-α release in BALB/c mice", "assay_type": "in vivo", "conditions": "Mus musculus, LPS 1 mg/kg i.p. 1 h after dosing, plasma TNF-α 1.5 h after LPS, read-out: % inhibition (Mean ± SE*); for inhibition in vivo at 100 mg/kg: 100 mg/kg po", "procedure": "The protocol described by Fukuda T. et al (Eur. J. Pharmacol., 391: 317-320, 2000) was followed. BALB/c mice were divided into groups of five to ten each. The test compound, suspended in Tween 80-0.5% carboxy methylcellulose (CMC), with a few drops of Tween 80 as wetting agent if necessary, was administered orally (p.o.) to the mice. One hour later, LPS dissolved in sterile, pyrogen-free saline was administered i.p. at the dose of 1 mg/kg. The negative control group received saline as an i.p injection, while all other groups received LPS. Rolipram (30 mg/kg) was used as the standard drug. One and a half hours later, blood was collected in heparin. Plasma was separated by centrifugation at 13000 rpm (Heraeus Biofuge Pico Centrifuge) at room temperature, aliquoted and stored at −70° C. until analysis.\nTNF-α levels in the blood samples were assayed using ELISA and % inhibition of TNF-α release compared to the control group was calculated."}, "[2]": {"system": "TNF-α", "assay": "Whole blood cell culture assay: LPS-induced TNF-α release (primary screening)", "assay_type": "cell-based, human", "conditions": "test compound 1 μM, diluted whole blood of healthy donors, LPS 1 μg/ml, 4.5 h, vs DMSO control; for inhibition at 1 µM: Homo sapiens, Whole blood cell", "procedure": "TNF-α production by lipopolysaccharide (LPS) in whole blood was measured according to the method described by Wilson et al (J. Immunol. Methods, 139: 233-240, 1991). Briefly, blood was collected from healthy donors into potassium EDTA vacutainer tubes (Vacutest Plast/Becton Dickinson) and diluted with RPMI 1640 culture medium (Gibco BRL, Pasley, UK) containing 100 U/ml penicillin and 100 μg/ml streptomycin, (100× solution, Sigma Chemical Co. St Louis, Mo.) with no added serum. The white blood cell count was adjusted to 1×10^6 cells/ml and 100 μl/well of the diluted blood was transferred into 96-well culture plates. Following cell plating, 79 μl of culture medium and 1 μl of the test compounds (final concentration 1 μM) dissolved in DMSO (dimethylsulfoxide, Sigma, Mo., USA) was added to the cells. The final concentration of DMSO was adjusted to 0.5%. 1 μl of vehicle (0.5% DMSO) was used as control. Rolipram (100 μM) was used as a standard compound. The plates were incubated for 30 min at 37° C. in an atmosphere of 5% CO2. Finally, 20 μl (10 μg/ml) per well of LPS (Escherchia coli 0127:B8, Sigma Chemical Co., St. Louis, Mo.) was added, for a final concentration of 1 μg/ml. Plates were incubated at 37° C. for 4.5 h in an atmosphere of 5% CO2. Supernatants were harvested and assayed for TNF-α by ELISA as described by the manufacturer (R&D Systems, MN) or by cytotoxicity bioassay in L929 cells. Percent inhibition of TNF-α release in comparison to the control was calculated."}, "[3]": {"system": "TNF-α", "assay": "LPS-induced TNF-α production in peripheral blood mononuclear cells (secondary screening)", "assay_type": "cell-based", "procedure": "(§1) TNF-α production by LPS in peripheral blood mononuclear cells (PBMC) was measured according to the method described by Henry et al (J. Bioorg. Med. Chem. Lett., 8: 3335-3340, 1998). Briefly, blood was collected from healthy donors into Potassium EDTA vacutainer tubes (Vacutest Plast/Becton Dickinson). PBMC were isolated using gradient centrifugation in Ficoll-Paque solution (Pharmacia). Isolated PBMC were suspended in RPMI 1640 culture medium (Gibco BRL, Pasley, UK) containing 10% fetal bovine serum (FBS) (Hyclone, Utah, USA), 100 U/ml penicillin (Sigma Chemical Co. St Louis, Mo.) and 100 μg/ml streptomycin (Sigma Chemical Co. St Louis, Mo.). The cell concentration was adjusted to 1×10^6 cells/ml. The viability as determined by trypan blue dye exclusion was uniformly ≧98%. The cell suspension (100 μl) was added to the wells of a 96-well culture plate. Following cell plating, 79 μl of the culture medium and 1 μl of eight different concentrations of the test compounds (final concentration 0.03, 0.1, 0.3, 1, 3, 10, 30, 100 μM) dissolved in DMSO (dimethylsulfoxide, Sigma, Mo., USA) were added to the cells. The final concentration of DMSO was adjusted to 0.5%. The appropriate DMSO concentration was used as control. Rolipram (30 μM) was used as a standard compound. The plates were incubated for 30 min at 37° C. in an atmosphere of 5% CO2. Finally, 20 μl (10 μg/ml) per well of LPS, (Escherchia coli 0127:B8, Sigma Chemical Co., St. Louis, Mo.) was added, for a final concentration of 1 μg/ml. The plates were incubated at 37° C. for 4.5 h in an atmosphere of 5% CO2. To determine the cytotoxicity of the test compounds, the cell viability was assessed using MTS (3-(4,5-dimethylthiazol-2-yl)-5-(3-carboxymethoxyphenyl)-2-(4-sulfonyl)-2H-tetrazolium) reagent (Promega) after 4.5 h of incubation. Supernatants were harvested and assayed for TNF-α by ELISA as described by the manufacturer (R&D Systems, MN, BD Biosciences Pharmingen) or by cytotoxicity bioassay in L929 cells. The 50% inhibitory concentration (IC50) values were calculated by a nonlinear regression method using GraphPad software (Prism 3.03)"}, "[4]": {"system": "peripheral blood mononuclear cells (PBMC)", "assay": "Cytotoxicity of test compounds in PBMC, cell viability by MTS reagent", "assay_type": "cell-based, human", "procedure": "as §1"}, "[5]": {"conditions": "4.5 h, TNF-α production in PBMC, LPS 1 μg/ml, ELISA or L929 bioassay"}}, "note": "Counter-ions that a name gives are not always drawn."}
{"compound": "Cc1cc(C(=O)O)cc2c1Oc1c(Cl)cc(N)cc1CS2(=O)=O", "note": "[Example 3, 2-Amino-4-chloro-6-methyl-10,10-dioxo-10,11-dihydro-5-oxa-10lambda*6*-thia-dibenzo[a,d]cycloheptene-8-carboxylic acid sodium salt]", "values": [{"measurement": "inhibition in vivo at 100 mg/kg", "setting": "[1]", "result": "40.7 ± 12.7", "unit": "%"}]}
{"compound": "CCC(=O)Nc1cc(Cl)c2c(c1)CS(=O)(=O)c1cc(C(=O)OC)cc(C)c1O2", "note": "[Example 6, 4-Chloro-6-methyl-10,10-dioxo-2-propionylamino-10,11-dihydro-5-oxa-10lambda*6*-thia-dibenzo[a,d]cycloheptene-8-carboxylic acid methyl ester]", "values": [{"measurement": "inhibition at 1 µM", "setting": "[2]", "result": 89, "unit": "%"}, {"measurement": "melting point", "result": "226 to 228", "unit": "°C"}]}
{"compound": "Cc1cc(C(=O)O)cc2c1Oc1c(Cl)cc(NC=O)cc1CS2(=O)=O", "note": "[Example 7, 4-Chloro-2-formylamino-6-methyl-10,10-dioxo-10,11-dihydro-5-oxa-10lambda*6*-thia-dibenzo[a,d]cycloheptene-8-carboxylic acid]", "values": [{"measurement": "inhibition in vivo at 100 mg/kg", "setting": "[1]", "result": "55.8 ± 9.24", "unit": "%"}]}
{"compound": "COC(=O)c1cc(C)c2c(c1)S(=O)(=O)Cc1cc(NC=O)cc(Cl)c1O2", "note": "[Example 9, 4-Chloro-2-formylamino-6-methyl-10,10-dioxo-10,11-dihydro-5-oxa-10lambda*6*-thia-dibenzo[a,d]cycloheptene-8-carboxylic acid methyl ester]", "values": [{"measurement": "inhibition at 1 µM", "setting": "[2]", "result": 31, "unit": "%"}, {"measurement": "IC50", "setting": "[3]; [5]", "result": 2.6, "unit": "µM"}, {"measurement": "% toxicity (10 μM), 5 h", "setting": "[4]", "result": "09", "unit": "%"}, {"measurement": "melting point", "result": "258 to 262 °C (dec.)"}]}
{"compound": "COC(=O)c1cc(C)c2c(c1)S(=O)(=O)Cc1cc(N3CCNCC3)cc(Cl)c1O2.CS(=O)(=O)O", "note": "[Example 17, 4-Chloro-6-methyl-10,10-dioxo-2-piperazin-1-yl-10,11-dihydro-5-oxa-10lambda*6*-thia-dibenzo[a,d]cycloheptene-8-carboxylic acid methyl ester mesylate]", "values": [{"measurement": "IC50", "setting": "[3]; TNF-α production in PBMC; LPS 1 μg/ml, 4.5 h; ELISA or L929 bioassay; mesylate", "result": 0.1, "unit": "µM"}, {"measurement": "% toxicity (10 μM), 5 h", "setting": "[4]", "result": 66, "unit": "%"}, {"measurement": "melting point", "result": "279 to 281", "unit": "°C"}]}
{"compound": "Cc1cc(C(=O)O)cc2c1Oc1c(Cl)cc(N3CCNCC3)cc1CS2(=O)=O", "note": "[Example 18, 4-Chloro-6-methyl-10,10-dioxo-2-piperazin-1-yl-10,11-dihydro-5-oxa-10lambda*6*-thia-dibenzo[a,d]cycloheptene-8-carboxylic acid]", "values": [{"measurement": "inhibition in vivo at 100 mg/kg", "setting": "[1]", "result": "22.7 ± 8.47", "unit": "%"}]}
{"compound": "COC(=O)c1cc(C)c2c(c1)S(=O)(=O)Cc1cc(N3CCN(C=O)CC3)cc(Cl)c1O2", "note": "[Example 20, 4-Chloro-2-(4-formyl-piperazin-1-yl)-6-methyl-10,10-dioxo-10,11-dihydro-5-oxa-10lambda*6*-thia-dibenzo[a,d]cycloheptene-8-carboxylic acid methyl ester]", "values": [{"measurement": "IC50", "setting": "[3]; [5]", "result": 1.1, "unit": "µM"}, {"measurement": "% toxicity (10 μM), 5 h", "setting": "[4]", "result": 24, "unit": "%"}, {"measurement": "inhibition in vivo at 30 mg/kg", "setting": "[1]; 30 mg/kg po", "result": "27.9 ± 17.5", "unit": "%"}]}
{"compound": "Cc1cc(C(=O)OC(C)C)cc2c1Oc1c(Cl)cc(N3CCNCC3)cc1CS2(=O)=O.Cl", "note": "[Example 28, 4-Chloro-6-methyl-10,10-dioxo-2-piperazin-1-yl-10,11-dihydro-5-oxa-10lambda*6*-thia-dibenzo[a,d]cycloheptene-8-carboxylic acid isopropyl ester hydrochloride]", "values": [{"measurement": "inhibition at 1 µM", "setting": "[2]", "result": 70, "unit": "%"}, {"measurement": "IC50", "setting": "[3]; [5]", "result": 10.5, "unit": "µM"}, {"measurement": "% toxicity (10 μM), 5 h", "setting": "[4]", "result": 15, "unit": "%"}, {"measurement": "melting point", "result": "262 to 264", "unit": "°C"}]}
{"compound": "COC(=O)c1cc(C)c2c(c1)S(=O)(=O)Cc1ccc(NCCN)c(Cl)c1O2.Cl", "note": "[Example 31, 3-(2-Amino-ethylamino)-4-chloro-6-methyl-10,10-dioxo-10,11-dihydro-5-oxa-10lambda*6*-thia-dibenzo[a,d]cycloheptene-8-carboxylic acid methyl ester hydrochloride]", "values": [{"measurement": "inhibition at 1 µM", "setting": "[2]", "result": 66, "unit": "%"}, {"measurement": "IC50", "setting": "[3]; [5]", "result": 0.84, "unit": "µM"}, {"measurement": "% toxicity (10 μM), 5 h", "setting": "[4]", "result": 21, "unit": "%"}]}
{"compound": "COC(=O)c1cc(C)c2c(c1)S(=O)(=O)Cc1ccc(N3CCNCC3)c(Cl)c1O2.Cl", "note": "[Example 32, 4-Chloro-6-methyl-10,10-dioxo-3-piperazin-1-yl-10,11-dihydro-5-oxa-10lambda*6*-thia-dibenzo[a,d]cycloheptene-8-carboxylic acid methyl ester hydrochloride]", "values": [{"measurement": "inhibition at 1 µM", "setting": "[2]", "result": 96, "unit": "%"}, {"measurement": "IC50", "setting": "[3]; [5]", "result": 0.16, "unit": "µM"}, {"measurement": "% toxicity (10 μM), 5 h", "setting": "[4]", "result": 27, "unit": "%"}, {"measurement": "melting point", "result": "235 to 237", "unit": "°C"}]}
{"compound": "COC(=O)Cc1cc(C)c2c(c1)S(=O)(=O)Cc1cc(N3CCNCC3)cc(Cl)c1O2.Cl", "note": "[Example 33, (4-Chloro-6-methyl-10,10-dioxo-2-piperazine-1-yl-10,11-dihydro-5-oxa-10lambda*6*-thia-dibenzo[a,d]cyclohepten-8-yl)-acetic acid methyl ester hydrochloride]", "values": [{"measurement": "inhibition at 1 µM", "setting": "[2]", "result": 95, "unit": "%"}, {"measurement": "IC50", "setting": "[3]; [5]", "result": 0.2, "unit": "µM"}, {"measurement": "% toxicity (10 μM), 5 h", "setting": "[4]", "result": 29, "unit": "%"}, {"measurement": "melting point", "result": "280 °C (dec.)"}]}
{"compound": "Cc1cc(C=O)cc2c1Oc1c(Cl)cc(N3CCNCC3)cc1CS2(=O)=O", "note": "[Example 35, 4-Chloro-6-methyl-10,10-dioxo-2-piperazin-1-yl-10,11-dihydro-5-oxa-10lambda*6*-thia-dibenzo[a,d]cycloheptene-8-carbaldehyde]", "values": [{"measurement": "inhibition at 1 µM", "setting": "[2]", "result": 45, "unit": "%"}, {"measurement": "IC50", "setting": "[3]; [5]", "result": 1.4, "unit": "µM"}, {"measurement": "% toxicity (10 μM), 5 h", "setting": "[4]", "result": "07", "unit": "%"}]}
{"compound": "COC(=O)c1cc(C)c2c(c1)S(=O)(=O)Cc1cc(N)cc(Cl)c1N2", "note": "[Example 37, 2-Amino-4-chloro-6-methyl-10,10-dioxo-10,11-dihydro-5H-10lambda*6*-thia-5-aza-dibenzo[a,d]-cycloheptene-8-carboxylic acid methylester]", "values": [{"measurement": "inhibition at 1 µM", "setting": "[2]", "result": 33, "unit": "%"}, {"measurement": "melting point", "result": "278 to 280", "unit": "°C"}]}
{"compound": "COC(=O)c1cc(C)c2c(c1)S(=O)(=O)Cc1cc(NC=O)cc(Cl)c1N2", "note": "[Example 38, 4-Chloro-2-formylamino-6-methyl-10,10-dioxo-10,11-dihydro-5H-10-lambda*6*-thia-5-aza-dibenzo[a,d]-cycloheptene-8-carboxylic acid methyl ester]", "values": [{"measurement": "% inhibition of TNF-α release", "setting": "[2]", "result": 45, "unit": "%"}, {"measurement": "IC50", "setting": "[3]; TNF-α production in PBMC; LPS 1 μg/ml, 4.5 h; ELISA or L929 bioassay", "result": "1.2 ± 1.58", "unit": "µM"}, {"measurement": "% toxicity (10 μM), 5 h", "setting": "[4]", "result": "10 ± 04", "unit": "%"}]}
